Laboratory results from patent publication US20250163051A1, “PYRIMIDO AROMATIC RING COMPOUND AND USE THEREOF IN DRUG” (SUNSHINE LAKE PHARMA CO., LTD., priority 2022, published 2025).

Columns and labels:
hERG channel = molecular target: T1, hERG channel (Homo sapiens, UniProt Q12809); experiment: hERG channel current in HEK293 cells, automated patch clamp; assay type: cell-based; settings: HEK-293 cells stably expressing hERG, whole-cell patch clamp, 0.3-30 μM
T1 construct: expressed in transfected cells; host or cells: HEK-293 cells stably expressing hERG
Procedure: Test 2: Detection of the Effect of Compounds on hERG Channel Currents Stably Expressed in HEK293 Cells Using Automated Patch Clamp
Experimental purpose: The concentration-effect relationship of the blocking effect of the compounds on hERG channels was determined using the patch clamp technique and HEK-293 cells stably expressing hERG channels to evaluate their risk of inhibitory effect on cardiac hERG potassium channels.
Experimental method: hERG cells were clamped using the patch clamp technique to form a high-resistance seal and then the membrane was broken. The whole-cell recording mode was used to record the hERG current. Each drug concentration was set to be administered twice for at least 5 minutes. The test concentrations were 0.3 μM, 1 μM, 3 μM, 10 μM and 30 μM, and the changes of the test compounds on hERG current were observed.

CYP1A2 = experiment: Induction of CYP1A2 in frozen human hepatocytes; assay type: in vitro ADME; settings: 72 h induction, concentration and readout not stated
Procedure: (§1) Experimental purpose: Using frozen human hepatocytes as the test system, the induction effects of the test substances on CYP1A2, CYP2B6 and CYP3A4 were evaluated from two aspects of enzyme activity and mRNA level.
(§2) Experimental method: 24 hours after cell plating, induction was started by adding medium containing the test compound (test concentrations were 10, 1, and 0.1 μM), and fresh drug-containing medium was replaced every 24 hours. After 72 hours of induction, the medium was replaced with medium containing CYP1A2, CYP2B6, and CYP3A4 specific substrates for 30 minutes of incubation. 100 μL was taken for treatment, and the labeled metabolites of the substrates were detected to evaluate the enzyme activity level. Finally, the cells were lysed and reverse transcribed, and the expression levels of CYP1A2, CYP2B6 and CYP3A4 genes in the cells were evaluated by real-time quantitative PCR.
(§3) The induction fold of the test compound compared with the blank control and the induction percentage of the test compound compared with the positive control were used as the basis for evaluating the induction potential of the test compound. Among them, the positive control for CYP1A2 is Omeprazole; the positive control for CYP2B6 is Phenobarbital; the positive control for CYP3A4 is Rifampicin.

CYP2B6 = experiment: Induction of CYP2B6 in frozen human hepatocytes; assay type: in vitro ADME; settings: 72 h induction, concentration and readout not stated
Procedure: as §1, §2, §3

CYP3A4 = experiment: Induction of CYP3A4 in frozen human hepatocytes; assay type: in vitro ADME; settings: 72 h induction, concentration and readout not stated
Procedure: as §1, §2, §3

T1 sequence (Q12809 whole entry): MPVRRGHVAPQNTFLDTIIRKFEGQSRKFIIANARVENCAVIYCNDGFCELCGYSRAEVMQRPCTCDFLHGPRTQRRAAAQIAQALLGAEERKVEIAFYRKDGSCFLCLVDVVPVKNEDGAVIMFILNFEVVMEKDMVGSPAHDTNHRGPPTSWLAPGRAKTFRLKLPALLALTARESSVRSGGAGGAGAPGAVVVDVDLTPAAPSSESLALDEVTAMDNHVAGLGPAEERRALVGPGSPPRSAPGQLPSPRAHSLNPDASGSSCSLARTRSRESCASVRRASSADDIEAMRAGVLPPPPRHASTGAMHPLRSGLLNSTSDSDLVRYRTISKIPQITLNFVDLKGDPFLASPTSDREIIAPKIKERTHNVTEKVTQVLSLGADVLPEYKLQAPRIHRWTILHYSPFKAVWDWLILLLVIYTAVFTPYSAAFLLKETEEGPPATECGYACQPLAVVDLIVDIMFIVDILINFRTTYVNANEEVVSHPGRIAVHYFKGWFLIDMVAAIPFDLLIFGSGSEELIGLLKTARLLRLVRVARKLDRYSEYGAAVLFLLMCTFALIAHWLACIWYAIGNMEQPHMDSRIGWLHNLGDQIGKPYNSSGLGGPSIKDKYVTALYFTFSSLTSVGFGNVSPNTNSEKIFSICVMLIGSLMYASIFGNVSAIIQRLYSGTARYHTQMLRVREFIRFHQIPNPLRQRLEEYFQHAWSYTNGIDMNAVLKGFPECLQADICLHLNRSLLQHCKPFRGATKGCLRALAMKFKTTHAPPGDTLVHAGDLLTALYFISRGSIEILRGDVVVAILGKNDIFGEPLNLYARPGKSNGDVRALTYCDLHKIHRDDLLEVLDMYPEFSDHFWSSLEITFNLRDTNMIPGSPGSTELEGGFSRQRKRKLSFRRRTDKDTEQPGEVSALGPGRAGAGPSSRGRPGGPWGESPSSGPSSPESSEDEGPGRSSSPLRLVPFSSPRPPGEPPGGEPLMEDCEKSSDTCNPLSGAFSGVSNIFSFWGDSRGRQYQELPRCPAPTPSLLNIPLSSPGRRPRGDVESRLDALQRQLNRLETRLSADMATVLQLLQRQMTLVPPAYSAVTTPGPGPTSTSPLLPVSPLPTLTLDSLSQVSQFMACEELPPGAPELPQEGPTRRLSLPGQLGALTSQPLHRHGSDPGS

- CYP1A2 Induction fold relative to blank control (CYP1A2): 2.6
- CYP2B6 Induction fold relative to blank control (CYP2B6): 3.6
- CYP2B6 Induction percentage relative to positive control (%) (CYP2B6; positive control Phenobarbital): 24.5%
- CYP3A4 Induction fold relative to blank control (CYP3A4): 9.5
- CYP3A4 Induction percentage relative to positive control (%) (CYP3A4; positive control Rifampicin): 15.8%
Compound: CCCC[C@](C)(CO)Nc1nc(N)nc2cc(F)cnc12 [Comparative compounds, (R)-2-((2-amino-7-fluoropyrido[3,2-d]pyrimidin-4-yl)amino)-2-methylhexan-1-ol, reference compound]
- IC50 (hERG channel): 3.3 µM
